The values below are quoted from earlier work in PubChem BioAssay AID1259409 (Chemical Carcinogenesis Research Information System (CCRIS), 2018).

The data set has as its system rodent chemically induced tumor inhibition, incidence and multiplicity. In words: CCRIS tumor inhibitor studies. The conditions noted are these: Promoter: NONE USED.

Take `CC1=C(/C=C/C(C)=C/C=C/C(C)=C/C(=O)NCC(O)CO)C(C)(C)CCC1` (stereo unspecified): the “tumour outcome (control, treated, inhibition, significance)” value is given as 31/55 (56%), 25/54 (46%), 18%, not significant (Carcinogen: N-BUTYL-N-(4-HYDROXYBUTYL)NITROSAMINE, 3817-11-6, Dose [Inhibitor]: 1.5 MMOL/KG/D IN DIET FOR 108 D STARTING 1 WK POST CARCINOGEN TREATMENT (STUDY DURATION: 171 D), Route [Inhibitor]: ORAL, Species: MOUSE, Strain/Sex: BDF/MALE, Target Tissue: Type of Lesion: URINARY BLADDER: TRANSITIONAL CELL CARCINOMA, Dose [Carcinogen]: 5 MG 2/WK FOR 9 WK); 38%, 35%, 8%, not calculated (Carcinogen: N-NITROSOBIS(2-OXOPROPYL)AMINE, 60599-38-4, Dose [Inhibitor]: 0.25 MMOL/KG OF DIET FOR 184 D STARTING 2 WK AFTER LAST CARCINOGEN DOSE WITH 4 INTERMITTENT 1 WK REST PERIODS OF VEHICLE, Route [Inhibitor]: ORAL, Species: HAMSTER, Strain/Sex: SYRIAN/FEMALE, Target Tissue: Type of Lesion: PANCREAS: CARCINOMA, Dose [Carcinogen]: 20 MG/KG INJECTION GIVEN TWICE 1 WK APART); 34%, 43%, -26%, not calculated (Carcinogen: N-NITROSOBIS(2-OXOPROPYL)AMINE, 60599-38-4, Dose [Inhibitor]: 0.25 MMOL/KG OF DIET FOR 184 D STARTING 2 WK AFTER LAST CARCINOGEN DOSE WITH 4 INTERMITTENT 1 WK REST PERIODS OF VEHICLE, Route [Inhibitor]: ORAL, Species: HAMSTER, Strain/Sex: SYRIAN/MALE, Target Tissue: Type of Lesion: PANCREAS: CARCINOMA, Dose [Carcinogen]: 20 MG/KG INJECTION GIVEN TWICE 1 WK APART); 5%, 28%, -460%, not calculated (Carcinogen: N-NITROSOBIS(2-OXOPROPYL)AMINE, 60599-38-4, Dose [Inhibitor]: 0.25 MMOL/KG OF DIET FOR 350 D STARTING 2 WK AFTER LAST CARCINOGEN DOSE AND INTERRUPTED TWICE BY 1 WK REST PERIODS OF VE, Route [Inhibitor]: ORAL, Species: HAMSTER, Strain/Sex: SYRIAN/FEMALE, Target Tissue: Type of Lesion: LIVER: HEPATOCELLULAR CARCINOMA, Dose [Carcinogen]: 20 MG/KG INJECTION GIVEN TWICE 1 WK APART); 7%, 14%, -100%, not calculated (Carcinogen: N-NITROSOBIS(2-OXOPROPYL)AMINE, 60599-38-4, Dose [Inhibitor]: 0.25 MMOL/KG OF DIET FOR 350 D STARTING 2 WK AFTER LAST CARCINOGEN DOSE AND INTERRUPTED TWICE BY 1 WK REST PERIODS OF VE, Route [Inhibitor]: ORAL, Species: HAMSTER, Strain/Sex: SYRIAN/MALE, Target Tissue: Type of Lesion: LIVER: HEPATOCELLULAR CARCINOMA, Dose [Carcinogen]: 20 MG/KG INJECTION GIVEN TWICE 1 WK APART); 5%, 0%, 100%, not calculated (Carcinogen: N-NITROSOBIS(2-OXOPROPYL)AMINE, 60599-38-4, Dose [Inhibitor]: 0.5 MMOL/KG OF DIET FOR 153 D STARTING 2 WK AFTER LAST CARCINOGEN DOSE WITH 4 INTERMITTENT 1 WK REST PERIODS OF VEHICLE-, Route [Inhibitor]: ORAL, Species: HAMSTER, Strain/Sex: SYRIAN/FEMALE, Target Tissue: Type of Lesion: LIVER: HEPATOCELLULAR CARCINOMA, Dose [Carcinogen]: 20 MG/KG INJECTION GIVEN TWICE 1 WK APART). Further, the “tumour outcome (control, treated, inhibition, significance)” value is, setting by setting: (Carcinogen: N-NITROSOBIS(2-OXOPROPYL)AMINE, 60599-38-4, Dose [Inhibitor]: 0.5 MMOL/KG OF DIET FOR 153 D STARTING 2 WK AFTER LAST CARCINOGEN DOSE WITH 4 INTERMITTENT 1 WK REST PERIODS OF VEHICLE-, Route [Inhibitor]: ORAL, Species: HAMSTER, Strain/Sex: SYRIAN/FEMALE, Target Tissue: Type of Lesion: PANCREAS: NEOPLASM, Dose [Carcinogen]: 20 MG/KG INJECTION GIVEN TWICE 1 WK) 38%, 21%, 45%, not calculated; (Carcinogen: N-NITROSOBIS(2-OXOPROPYL)AMINE, 60599-38-4, Dose [Inhibitor]: 0.5 MMOL/KG OF DIET FOR 153 D STARTING 2 WK AFTER LAST CARCINOGEN DOSE WITH 4 INTERMITTENT 1 WK REST PERIODS OF VEHICLE-, Route [Inhibitor]: ORAL, Species: HAMSTER, Strain/Sex: SYRIAN/MALE, Target Tissue: Type of Lesion: PANCREAS: CARCINOMA, Dose [Carcinogen]: 20 MG/KG INJECTION GIVEN TWICE 1 WK APART) 34%, 36%, -6%, not calculated.
Turning to `CCNC(=O)\C=C(C)/C=C/C=C(C)/C=C/C1=C(C)CCCC1(C)C`, the “tumour outcome (control, treated, inhibition, significance)” value (Carcinogen: N-BUTYL-N-(4-HYDROXYBUTYL)NITROSAMINE, 3817-11-6, Dose [Inhibitor]: 1.5 MMOL/KG DIET DAILY FOR 153 D STARTING ONE WK AFTER THE FINAL CARCINOGEN DOSE (STUDY DURATION: 210 D), Route [Inhibitor]: ORAL, Species: MOUSE, Strain/Sex: BDF/MALE, Target Tissue: Type of Lesion: URINARY BLADDER: TRANSITIONAL CELL CARCINOMA, Dose [Carcinogen]: 7.5 MG 1/WK FOR 8 WK) is 35/99 (35%), 19/96 (20%), 43%, p<0.05 and the “tumour outcome (control, treated, inhibition, significance)” value (Carcinogen: N-BUTYL-N-(4-HYDROXYBUTYL)NITROSAMINE, 3817-11-6, Dose [Inhibitor]: 1.5 MMOL/KG IN DIET DAILY FOR 153 D STARTING ONE WK AFTER THE LAST CARCINOGEN DOSE (STUDY DURATION: 210 D), Route [Inhibitor]: ORAL, Species: MOUSE, Strain/Sex: BDF/MALE, Target Tissue: Type of Lesion: URINARY BLADDER: TRANSITIONAL CELL CARCINOMA, Dose [Carcinogen]: 7.5 MG 1/WK FOR 8 WK) is recorded as 35/99 (35%), 19/96 (20%), 43%, p<0.05.
Turning to `CCNC(=O)[C@@H]1CCCN1C(=O)[C@H](CCCN=C(N)N)NC(=O)[C@H](CC(C)C)NC(=O)[C@@H](CC(C)C)NC(=O)[C@H](Cc1ccc(O)cc1)NC(=O)[C@H](CO)NC(=O)[C@H](Cc1c[nH]c2ccccc12)NC(=O)[C@H](Cc1cnc[nH]1)NC(=O)[C@@H]1CCC(=O)N1`, the “tumour outcome (control, treated, inhibition, significance)” value (Carcinogen: N-BUTYL-N-(4-HYDROXYBUTYL)NITROSAMINE, 3817-11-6, Dose [Inhibitor]: 0, 1 MG/KG 1/4 WK FOR 11 WK BEGINNING POST CARCINOGEN TREATMENT (STUDY DURATION: 21 WK), Route [Inhibitor]: SUBCUTANEOUS, Species: RAT, Strain/Sex: WISTAR/MALE, Target Tissue: Type of Lesion: URINARY BLADDER:CARCINOMA, Dose [Carcinogen]: 0.05% IN DRINKING WATER FOR 10 WK) is recorded as 15/17 (88%), 10/18 (56%), 36%, p<0.05.
